Reference: ChEMBL document CHEMBL1201862, “PubChem BioAssay data set” (2004)
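Five concentrations, 48 hours, 96-well plates. At the GI50, growth is halved.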 Activity calls are given as the source filed them. No stated cut-off is given here; in the data, active = GI50 up to about 1.1 µM and inactive = higher.

Tests used:
Experiment in all cases: growth of human tumour cells (NCI), 48 h
A498 = system: A498
CCRF-CEM = system: CCRF-CEM
COLO 205 = system: COLO 205
K562 = system: K562
KM12 = system: KM12
LOX IMVI = system: LOX IMVI
MOLT-4 = system: MOLT-4
RPMI-8226 = system: RPMI-8226
SK-MEL-2 = system: SK-MEL-2
SK-MEL-5 = system: SK-MEL-5
SK-OV-3 = system: SK-OV-3
TK-10 = system: TK-10
UACC-257 = system: UACC-257
OVCAR-3 = system: OVCAR-3

Measured: GI50

COC(=O)C(Cc1cc(OC)c(OC)c(OC)c1)(NC(=O)c1ccccc1)P(=O)(OC)OC (centres undefined)
inactive: A498 > 100 µM | CCRF-CEM > 100 µM | COLO 205 > 100 µM | K562 > 100 µM | KM12 > 100 µM | LOX IMVI > 100 µM | MOLT-4 > 100 µM | RPMI-8226 > 100 µM | SK-MEL-2 > 100 µM | SK-MEL-5 > 100 µM | SK-OV-3 > 100 µM | TK-10 > 100 µM | UACC-257 > 100 µM

O=C(CC1OC(O)C(Cl)=C1Cl)c1cccnc1 (centres undefined)
inactive: A498 > 100 µM | CCRF-CEM > 100 µM | COLO 205 > 100 µM | K562 > 100 µM | KM12 > 100 µM | LOX IMVI > 100 µM | MOLT-4 > 100 µM | OVCAR-3 > 100 µM | RPMI-8226 > 34.7 µM | SK-MEL-5 83.8 µM | SK-OV-3 > 100 µM | TK-10 > 100 µM | UACC-257 > 100 µM

COC(=O)[C@]12CC=C3O[C@@H]4OC5(CCCCC5)O[C@@H]4C3[C@@H]1C(=O)CCC2=O (some centres undefined)
inactive: A498 > 100 µM | CCRF-CEM > 100 µM | COLO 205 > 100 µM | K562 > 100 µM | KM12 > 100 µM | LOX IMVI > 100 µM | MOLT-4 > 100 µM | OVCAR-3 36.5 µM | RPMI-8226 > 100 µM | SK-MEL-2 > 100 µM | SK-MEL-5 > 100 µM | SK-OV-3 > 100 µM | UACC-257 > 100 µM

Cc1[nH]c2ccccc2c1C1Cc2ccccc2N1C(=O)C#Cc1ccc([N+](=O)[O-])cc1 (centres undefined)
inactive: A498 > 100 µM | CCRF-CEM 19.2 µM | K562 > 100 µM | KM12 > 100 µM | LOX IMVI > 100 µM | MOLT-4 8.87 µM | OVCAR-3 > 100 µM | RPMI-8226 76 µM | SK-OV-3 > 100 µM | TK-10 > 100 µM | UACC-257 > 100 µM

C=CCONC(=O)c1ccc(Cl)cc1
inactive: A498 > 100 µM | CCRF-CEM > 100 µM | COLO 205 > 100 µM | K562 > 100 µM | KM12 > 100 µM | LOX IMVI > 100 µM | MOLT-4 > 100 µM | RPMI-8226 > 100 µM | SK-MEL-2 > 100 µM | SK-MEL-5 > 100 µM | SK-OV-3 > 100 µM | TK-10 > 100 µM | UACC-257 > 100 µM

CCN(CC)c1ccc2c(c1)Nc1cc(=C(C#N)C#N)c3ccccc3c1=N2
inactive: A498 > 100 µM | COLO 205 > 100 µM | K562 > 100 µM | KM12 > 100 µM | LOX IMVI 53.5 µM | MOLT-4 > 100 µM | OVCAR-3 > 100 µM | RPMI-8226 > 100 µM | SK-MEL-2 > 100 µM | SK-MEL-5 > 100 µM | SK-OV-3 > 100 µM | TK-10 > 100 µM | UACC-257 > 100 µM

CC(=O)NC1C(O)CC(OCCCSCCN)(C(=O)O)OC1C(O)C(O)CO (centres undefined)
inactive: A498 > 100 µM | CCRF-CEM > 100 µM | COLO 205 > 100 µM | KM12 > 100 µM | LOX IMVI > 100 µM | MOLT-4 > 100 µM | RPMI-8226 > 100 µM | SK-MEL-2 > 100 µM | SK-MEL-5 > 100 µM | TK-10 > 100 µM | UACC-257 > 100 µM

CCN(c1ccc(Br)cc1)c1c(Br)c(=O)nc2ccccn12
inactive: A498 > 100 µM | CCRF-CEM > 100 µM | COLO 205 > 100 µM | K562 90.6 µM | KM12 > 100 µM | MOLT-4 > 100 µM | OVCAR-3 > 100 µM | RPMI-8226 74.5 µM | SK-MEL-2 > 100 µM | SK-MEL-5 59.8 µM | SK-OV-3 51.5 µM | TK-10 > 100 µM

CN(C)C(=S)/N=c1\sn(C)/c(=N\C(=S)N(C)C)n1C
inactive: A498 65.6 µM | COLO 205 > 100 µM | K562 34.1 µM | KM12 86.1 µM | LOX IMVI 45.1 µM | MOLT-4 > 100 µM | OVCAR-3 > 100 µM | RPMI-8226 > 100 µM | SK-MEL-5 29.1 µM | SK-OV-3 > 100 µM | TK-10 > 100 µM | UACC-257 > 100 µM

CN(C(=O)C12C3(C(=O)C(C)(C)C)C4C5(C#N)C3C1(C(=O)C(C)(C)C)C5C42C(=O)C(C)(C)C)C(C)(C)C (centres undefined)
inactive: A498 > 50 µM | CCRF-CEM 16.6 µM | COLO 205 > 50 µM | K562 27.2 µM | KM12 > 50 µM | MOLT-4 20 µM | OVCAR-3 38.9 µM | SK-MEL-5 > 50 µM | SK-OV-3 > 50 µM | TK-10 > 50 µM | UACC-257 19.6 µM

C=C(CO)CC(O)c1ccccc1 (centres undefined)
inactive: A498 > 100 µM | CCRF-CEM > 100 µM | COLO 205 > 100 µM | K562 > 100 µM | KM12 > 100 µM | LOX IMVI > 100 µM | MOLT-4 > 100 µM | OVCAR-3 > 100 µM | RPMI-8226 > 100 µM | SK-MEL-2 > 100 µM | SK-MEL-5 > 100 µM | SK-OV-3 > 100 µM | TK-10 > 100 µM

CC(=O)OCCOCNC(=S)N/N=C/c1ccc([N+](=O)[O-])o1
inactive: A498 > 100 µM | CCRF-CEM 23 µM | COLO 205 15 µM | K562 37.1 µM | KM12 57 µM | LOX IMVI 31.6 µM | OVCAR-3 33.6 µM | SK-MEL-2 44.1 µM | SK-MEL-5 28.7 µM | SK-OV-3 > 100 µM | TK-10 > 100 µM | UACC-257 34.4 µM

O=C1C(c2ccccc2)=C(c2ccccc2)C(c2ccc(CCCCCCc3ccc(C4=C(c5ccccc5)C(=O)C(c5ccccc5)=C4c4ccccc4)cc3)cc2)=C1c1ccccc1
inactive: CCRF-CEM > 100 µM | COLO 205 > 100 µM | K562 > 100 µM | KM12 > 100 µM | MOLT-4 > 100 µM | OVCAR-3 > 100 µM | RPMI-8226 > 100 µM | SK-MEL-2 > 100 µM | SK-MEL-5 > 100 µM | TK-10 > 100 µM | UACC-257 > 100 µM

COc1ccccc1NC(=O)C1=C(C)NC(C)=C(C(=O)Nc2ccccc2OC)C1c1ccc(C(C)C)cc1
inactive: A498 > 100 µM | COLO 205 > 100 µM | KM12 55.6 µM | LOX IMVI > 100 µM | MOLT-4 9.18 µM | OVCAR-3 > 100 µM | RPMI-8226 7.38 µM | SK-MEL-2 > 100 µM | SK-MEL-5 38.9 µM | SK-OV-3 > 100 µM | TK-10 > 100 µM | UACC-257 45.2 µM

CN1C(=O)C2C(C1=O)C1(O)c3ccccc3C2(N)c2ccccc21 (centres undefined)
inactive: A498 35.2 µM | CCRF-CEM > 100 µM | COLO 205 > 100 µM | K562 > 100 µM | KM12 > 100 µM | LOX IMVI > 100 µM | MOLT-4 > 100 µM | OVCAR-3 > 100 µM | SK-MEL-2 > 100 µM | SK-MEL-5 > 100 µM | SK-OV-3 > 100 µM | TK-10 > 100 µM | UACC-257 > 100 µM

CS(=O)(=O)N(N(CCCl)S(=O)(=O)c1ccccc1)S(C)(=O)=O
inactive: CCRF-CEM > 100 µM | COLO 205 > 100 µM | K562 > 100 µM | KM12 > 100 µM | MOLT-4 > 100 µM | OVCAR-3 > 100 µM | RPMI-8226 > 100 µM | SK-MEL-2 > 100 µM | SK-MEL-5 52.7 µM | TK-10 > 100 µM | UACC-257 > 100 µM
